The target of one assay is T1, porcine Renin (Sus scrofa, UniProt A0A287APG1).
T1 construct: purchased Sigma
Description: Porcine Renin cleavage of porcine tetradecapeptide (HPLC). In kind it is biochemical. Particulars: 0.5 μl of 50 μg/μl inhibitor in DMSO in 50 μl; pH 6.00, room temperature, 70 min; relative to uninhibited control. From the text: Renin Activity: Porcine Renin Cleavage of Porcine Tetradecapeptide
Proteolytic enzymes are ubiquitous in many living systems. Renin is an asparxyl protease found in mammals which is responsible for the regulation of blood pressure. Structural and functional similarities between Renin and retroviral proteases have been previously noted (Pearl, L. H., Taylor, W. R., (1987) Nature, 329, 351-354). Consequently, successful therapeutic inhibition of retroviral proteases depends on the ability of the inhibitor to inhibit the retroviral enzyme while having a greatly diminished effect on normally occurring enzymes like Renin. The failure to inhibit the desired enzyme selectively may have an adverse effect on normal biochemical functions. The similarity of Renin to retroviral proteases and its viral normal bodily function makes it an attractive system in which to examine inhibitory selectivity.
Renin activity was determined by a method similar to that described above for the HIV protease. A solution containing 0.37 m unit (0.5 μl of stock solution containing 0.75 m unit/μl) of porcine Renin (Sigma) was added to 5 μg of porcine angiotensinogen in 50 μl of 0.1 M citrate-phosphate buffer (pH 6.00) containing 0.25% NP-40. A DMSO solution containing the inhibitor (0.5 μl of a 50 μg/μl solution) was added and the reaction was allowed to incubate at room temperature for 70 min. The entire mixture was analyzed by HPLC chromatographic analysis was perforemd on a 4.6×250 mm Lichrosorb RP-18 column eluting with a gradient of 0-50% acetonitrile in 0.02 M KH2 Po4 (pH 4.7) over 30 min monitoring absorbance at 206 nm. Appearance of both the tetrapeptide and the decapeptide products may be monitored under these conditions. Enzyme activity is expressed as the amount of tetrapeptide produced relative to an uninhibited control, and are summarized in Table 3 below.

In another assay the test system is HIV1 IIIb. The assay can be described thus: microbe, parasite or virus in culture. Particulars: Human immunodeficiency virus 1, IIIB; for viability at 10 µg/mL: 10 ug/ml; for viability at 80.2 µg/mL: 80.2 ug/ml; for viability at 23.8 µg/mL: 23.8 ug/ml; for viability at 14 µg/mL: 14 ug/ml; for viability at 140 µg/mL: 140 ug/ml; for viability at 38 µg/mL: 38 ug/ml; for viability at 35.2 µg/mL: 35.2 ug/ml; for viability at 20.7 µg/mL: 20.7 ug/ml; for viability at 3.52 µg/mL: 3.52 ug/ml. In kind it is cell-based. The method in brief:
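Human host cells infected with HIV1 IIIb (virus-producing H9 cells or cell-free virus) and incubated seven days with compound. Viable cells measured by XTT formazan absorbance; response expressed as % of uninfected controls against virus kill %. Some cultures redosed after 3 days.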

A further assay relates to HIV-2 protease. Description: HIV protease cleavage of nonapeptide (HPLC). The note with it: 0.5 μl of 10 μg/μl inhibitor in DMSO per 10 μl reaction; pH 6.5, room temperature; pentapeptide product relative to DMSO control; sampled at ca. 16 and 40 hr (time not given). In kind it is biochemical. The gist of the method:
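Nonapeptide substrate Val-Ser-Gln-Asn-Tyr-Pro-Ile-Val-Gln-NH2 incubated with protease (ca. 100 ng) in 200 mM sodium phosphate, 1 M NaCl, 5% glycerol, 0.25% NP-40, pH 6.5, at room temperature with inhibitor added from a 10 μg/μl DMSO stock. Samples taken at ca. 16 and 40 h; RP-HPLC (206 nm) measured pentapeptide product relative to DMSO control.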

Like-named read-outs stand apart in the source and are kept apart here.

T1 sequence (A0A287APG1 24-407): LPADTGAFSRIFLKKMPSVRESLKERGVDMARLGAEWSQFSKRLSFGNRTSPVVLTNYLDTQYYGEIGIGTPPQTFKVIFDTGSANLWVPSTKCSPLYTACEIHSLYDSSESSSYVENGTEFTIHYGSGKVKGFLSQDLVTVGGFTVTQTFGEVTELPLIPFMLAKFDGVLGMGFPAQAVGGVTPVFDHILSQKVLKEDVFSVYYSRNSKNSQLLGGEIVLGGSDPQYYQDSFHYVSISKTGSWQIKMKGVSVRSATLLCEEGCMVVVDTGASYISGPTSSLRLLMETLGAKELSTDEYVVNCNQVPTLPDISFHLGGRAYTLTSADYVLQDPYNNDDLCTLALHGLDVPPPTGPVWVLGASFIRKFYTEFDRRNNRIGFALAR

On to `CCCCCCC[C@H]1O[C@H]1CO` [Example 15, (2S-cis)-3-Heptyloxirane Methanol], for which, at porcine Renin, the “Percent control (tetrapeptide produced)” value is on record as 86%. In the assay on HIV1 IIIb (168 h, read-out: Antiviral Effect (viable cells as % of uninfected controls), run 3, 92 ug/ml, source V (cell free virus), virus kill 35.0%), the viability at 92 µg/mL worked out at 60.8%. The viability at 10 µg/mL in the assay on HIV1 IIIb (168 h, read-out: Antiviral Effect (viable cells as % of uninfected controls), run 4, source V (cell free virus), virus kill 57.0%) was 78.2%; with HIV1 IIIb (168 h, read-out: Antiviral Effect (viable cells as % of uninfected controls), run 5, source V (cell free virus), virus kill 26.0%), 58.6%. Also, the viability at 21.6 µg/mL with HIV1 IIIb (168 h, read-out: Antiviral Effect (viable cells as % of uninfected controls), run 6*, 21.6 ug/ml, source V (cell free virus), virus kill 31.0%, culture redosed with compound after 3 days) came to 32%. Also, the viability at 46 µg/mL with HIV1 IIIb (H9, 168 h, read-out: Antiviral Effect (viable cells as % of uninfected controls), run 1, 46 ug/ml, source C (virus producing H9 cells), virus kill 15.0%) is 58.3%. Besides, the viability at 4.6 µg/mL in the assay on HIV1 IIIb (H9, 168 h, read-out: Antiviral Effect (viable cells as % of uninfected controls), run 2, 4.6 ug/ml, source C (virus producing H9 cells), virus kill 13.0%) is 11.8%. In the assay with HIV-2 protease, the “Percent Control Cleavage of Nonapeptide HIV-1 Cleavage Site Fragment” value (“Percent Control Cleavage” for short) is 59%.

On to `CCCCCCC[C@@H]1O[C@@H]1CO` [Example 16, (2R-cis)-3-Heptyloxirane Methanol], for which, at porcine Renin, the “Percent control (tetrapeptide produced)” value turned out to be 96%. Also, the viability at 160 µg/mL in the assay with HIV1 IIIb (168 h, read-out: Antiviral Effect (viable cells as % of uninfected controls), run 4, 160 ug/ml, source V (cell free virus), virus kill 40.0%) amounted to 62.6%. Besides, the viability at 80.2 µg/mL came out at 97.3% in the assay on HIV1 IIIb (168 h, read-out: Antiviral Effect (viable cells as % of uninfected controls), run 5, source V (cell free virus), virus kill 60.0%); 88.6% in the assay with HIV1 IIIb (168 h, read-out: Antiviral Effect (viable cells as % of uninfected controls), run 6, source V (cell free virus), virus kill 30.0%); 69.6% in the assay with HIV1 IIIb (H9, 168 h, read-out: Antiviral Effect (viable cells as % of uninfected controls), run 2, source C (virus producing H9 cells), virus kill 15.0%); 84.5% in the assay with HIV1 IIIb (H9, 168 h, read-out: Antiviral Effect (viable cells as % of uninfected controls), run 3, source C (virus producing H9 cells), virus kill 15.0%). For the same molecule, the viability at 23.8 µg/mL in the assay on HIV1 IIIb (168 h, read-out: Antiviral Effect (viable cells as % of uninfected controls), run 7, source V (cell free virus), virus kill 22.0%) is 35.9%; in the assay with HIV1 IIIb (168 h, read-out: Antiviral Effect (viable cells as % of uninfected controls), run 8*, source V (cell free virus), virus kill 28.0%, culture redosed with compound after 3 days), 39.7%. Further, the viability at 10.6 µg/mL with HIV1 IIIb (H9, 168 h, read-out: Antiviral Effect (viable cells as % of uninfected controls), run 1, 10.6 ug/ml, source C (virus producing H9 cells), virus kill 14.0%) was found to be 27.3%. In addition, the “Percent Control Cleavage” value with HIV-2 protease is on record as 42%.

`CCCCCCCCC[C@H]1O[C@H]1C(N)=O` [Example 23, (2R-cis)-3-Nonyloxiranecarboxy Amide]: the “Percent control (tetrapeptide produced)” value at porcine Renin was found to be 88%. Moreover, the viability at 2.8 µg/mL in the assay on HIV1 IIIb (168 h, read-out: Antiviral Effect (viable cells as % of uninfected controls), run 7, 2.8 ug/ml, source V (cell free virus), virus kill 19.0%) worked out at 108%. In addition, in the assay with HIV1 IIIb (168 h, read-out: Antiviral Effect (viable cells as % of uninfected controls), run 8, 7.6 ug/ml, source V (cell free virus), virus kill 30.0%), the viability at 7.6 µg/mL was determined as 40.2%. For the same molecule, in the assay on HIV1 IIIb (168 h, read-out: Antiviral Effect (viable cells as % of uninfected controls), run 9, 3.8 ug/ml, source V (cell free virus), virus kill 52.0%), the viability at 3.8 µg/mL turned out to be 60.1%. For the same molecule, the viability at 14 µg/mL was 60.1% with HIV1 IIIb (168 h, read-out: Antiviral Effect (viable cells as % of uninfected controls), run 10, source V (cell free virus), virus kill 52.0%) and 16% in the assay on HIV1 IIIb (H9, 168 h, read-out: Antiviral Effect (viable cells as % of uninfected controls), run 6, source C (virus producing H9 cells), virus kill 17.0%). The viability at 380 µg/mL in the assay with HIV1 IIIb (168 h, read-out: Antiviral Effect (viable cells as % of uninfected controls), run 11, 380 ug/ml, source V (cell free virus), virus kill 20.0%) worked out at 24%. Moreover, the viability at 140 µg/mL with HIV1 IIIb (168 h, read-out: Antiviral Effect (viable cells as % of uninfected controls), run 12, source V (cell free virus), virus kill 20.0%) is 31%; with HIV1 IIIb (H9, 168 h, read-out: Antiviral Effect (viable cells as % of uninfected controls), run 4, source C (virus producing H9 cells), virus kill 14.0%), 25.1%. In addition, the viability at 27 µg/mL in the assay with HIV1 IIIb (168 h, read-out: Antiviral Effect (viable cells as % of uninfected controls), run 13*, 27 ug/ml, source V (cell free virus), virus kill 22.0%, culture redosed with compound after 3 days) worked out at 79.6%. For the same molecule, the viability at 28 µg/mL with HIV1 IIIb (H9, 168 h, read-out: Antiviral Effect (viable cells as % of uninfected controls), run 1, 28 ug/ml, source C (virus producing H9 cells), virus kill 6.0%) amounted to 75.6%. In addition, in the assay on HIV1 IIIb (H9, 168 h, read-out: Antiviral Effect (viable cells as % of uninfected controls), run 2, 76 ug/ml, source C (virus producing H9 cells), virus kill 17.0%), the viability at 76 µg/mL was 28.5%. Besides, the viability at 38 µg/mL turned out to be 35.1% in the assay on HIV1 IIIb (H9, 168 h, read-out: Antiviral Effect (viable cells as % of uninfected controls), run 3, source C (virus producing H9 cells), virus kill 14.0%) and 17% in the assay on HIV1 IIIb (H9, 168 h, read-out: Antiviral Effect (viable cells as % of uninfected controls), run 5, source C (virus producing H9 cells), virus kill 17.0%). The “Percent Control Cleavage” value with HIV-2 protease is 102%.

As to `CCCCCCCCC[C@@H]1O[C@@H]1C(N)=O` [Example 24, (2S-cis)-3-Nonyloxiranecarboxy Amide], the “Percent control (tetrapeptide produced)” value on porcine Renin came out at 106%. The viability at 35.2 µg/mL in the assay on HIV1 IIIb (168 h, read-out: Antiviral Effect (viable cells as % of uninfected controls), run 5, source V (cell free virus), virus kill 54.6%) was 73%; in the assay with HIV1 IIIb (H9, 168 h, read-out: Antiviral Effect (viable cells as % of uninfected controls), run 1, source C (virus producing H9 cells), virus kill 16.0%) it was 73%. For the same molecule, the viability at 20.7 µg/mL in the assay on HIV1 IIIb (168 h, read-out: Antiviral Effect (viable cells as % of uninfected controls), run 6, source V (cell free virus), virus kill 54.6%) was determined as 71.4%; with HIV1 IIIb (168 h, read-out: Antiviral Effect (viable cells as % of uninfected controls), run 8, source V (cell free virus), virus kill 26.0%), 34%; with HIV1 IIIb (H9, 168 h, read-out: Antiviral Effect (viable cells as % of uninfected controls), run 2, source C (virus producing H9 cells), virus kill 16.0%) it was 67.4%. Besides, the viability at 3.52 µg/mL with HIV1 IIIb (168 h, read-out: Antiviral Effect (viable cells as % of uninfected controls), run 7, source V (cell free virus), virus kill 26.0%) was 28.1%; with HIV1 IIIb (H9, 168 h, read-out: Antiviral Effect (viable cells as % of uninfected controls), run 3, source C (virus producing H9 cells), virus kill 9.0%), 11.3%. The viability at 1.34 µg/mL in the assay on HIV1 IIIb (168 h, read-out: Antiviral Effect (viable cells as % of uninfected controls), run 9, 1.34 ug/ml, source V (cell free virus), virus kill 20.0%) worked out at 41.7%. Further, the viability at 0.135 µg/mL in the assay on HIV1 IIIb (168 h, read-out: Antiviral Effect (viable cells as % of uninfected controls), run 10*, 0.135 ug/ml, source V (cell free virus), virus kill 23.0%, culture redosed with compound after 3 days) was found to be 114%. Moreover, in the assay with HIV1 IIIb (H9, 168 h, read-out: Antiviral Effect (viable cells as % of uninfected controls), run 4, 2.07 ug/ml, source C (virus producing H9 cells), virus kill 9.0%), the viability at 2.07 µg/mL was 10.5%. Further, the “Percent Control Cleavage” value in the assay on HIV-2 protease is 113%.
